Earlier results as cited in patent US20230210786A1, “METHOD FOR SO[…], […] […] CANNABINOIDS” (ATHENION AG, priority 2020, published 2023).

Conditions: in vivo

Compound: CCCCCc1cc(O)c2c(c1)OC(C)(C)[C@@H]1CCC(C)=C[C@@H]21 [THC, (-)-trans-Δ^9-tetrahydrocannabinol]
- apparent volume of distribution: 10 L/kg
- plasma protein binding: ca. 97%
